Results reported in patent US12678471B2 (priority 2022, dated 2026).
Like-named read-outs stand apart in the source and are kept apart here.

Key:
Format in all cases: cell-based
[1] = system: Omicron S protein pseudotyped lentivirus (spike protein of the SARS-CoV-2 Omicron variant); test: microbe, parasite or virus in culture; conditions: read-out: Half inhibition concentration of viral infection (IC50) Omicron
[2] = system: D614G S protein pseudotyped lentivirus (spike protein of the SARS-CoV-2 D614G variant); conditions: read-out: Half inhibition concentration of viral infection (IC50) D614G
[3] = system: Delta S protein pseudotyped lentivirus (spike protein of the SARS-CoV-2 Delta variant); conditions: ACE2-293T cells; virus pretreated with compound 1 hour at 37° C.; 24 hours infection; mean ± SD (n = 3); read-out: Half inhibition concentration of viral infection (IC50) Delta

## COc1cc2c3cc1Oc1c(OC)c(OC)cc4c1[C@@H](Cc1ccc(O)c(c1)Oc1ccc(cc1)C[C@@H]3N(C)CC2)N(C)CC4 [Berbamine]
[1]; Lentivirus
  IC50: 2.29 ± 0.29 µM

## COc1cc2c3cc1Oc1c(O)c(OC)cc4c1[C@@H](Cc1ccc(O)c(c1)Oc1ccc(cc1)C[C@@H]3N(C)CC2)N(C)CC4 [Obamegine]
[1]; Lentivirus
  IC50: 1.19 ± 0.16 µM
[2]
  IC50: 1.4 ± 0.35 µM

## Aromoline
[1]
  IC50: 0.86 ± 0.12 µM
[3]
  IC50: 0.47 ± 0.08 µM

## Bersavine
[1]
  IC50: 1.71 ± 0.34 µM
[2]
  IC50: 1.24 ± 0.17 µM
[3]
  IC50: 2.86 ± 0.13 µM
